Data as given in US7851573B2, “Aqueous polytetrafluoroethylene emulsion, polytetrafluoroethylene fine powder and porous material obtained therefrom” (Asahi Glass Company, Limited, priority 2005, dated 2010).

Legend:
[1] = 1-octanol/water partition coefficient (LogPOW) by HPLC, OECD Test Guideline 117; assay type: physicochemical; details: for LogPOW: HPLC method, ODS column, acetonitrile/0.6 mass % HClO4 aq. 1/1, 40° C., calibration with C7-C10 carboxylic acids; for bioaccumulation potential / accumulation in a living organism: judged from the LogPOW value compared to APFO
Experimental: In accordance with OECD Test Guideline 117, 1-octanol/water partition coefficient (LogPOW) of a fluorinated emulsifier was measured by using HPLC (high performance liquid chromatography).
Conditions for the measurement were as follows: column: TOSOH ODS-120T column ((φ 4.6 mm×250 mm), eluent: acetonitrile/0.6 mass % of HClO4 aqueous solution=1/1 (vol/vol %), flow rate: 1.0 mL/minute, sample amount: 300 μL, column temperature: 40° C., and detection light: UV 210 nm (WO2005-42593).
HPLC was carried out on standard substances (heptanoic acid, octanoic acid, nonanoic acid and decanoic acid) having known 1-octanol/water partition coefficients, and a calibration curve was prepared from the respective elution times and octanol/water partition coefficients of the respective standard substances. Based on this calibration curve, a value of partition coefficient (LogPOW) between 1-octanol and water was calculated from the elution time by HPLC of the fluorinated emulsifier.
Further, in general, in order to judge whether or not a chemical substance is apt to be accumulated in a living organism, a testing method for measurement of a partition coefficient (LogPOW) between 1-octanol and water, is stipulated. As the testing method, in addition to “Partition Coefficient (1-octanol/water) Shake Flask Method” as stipulated in OECD test guideline 107 and in Japanese Industrial Standards Z 7260-107 (2000), a HPLC method (high-performance liquid chromatography) as stipulated and published in OECD Test Guideline 117, is used. A compound having a large partition coefficient value has a large tendency for bioaccumulation, and a compound having a small value means a small tendency for bioaccumulation. In a case where the LogPOW value is less than 3.5, it is considered proper to judge that it is not a high-concentration, and bioaccumulation is also considered to be small.

[2] = background art statement, no method given; cited from earlier work

Compound	LogPOW [1]	bioaccumulation potential / accumulation in a living organism [1]	bioaccumulation potential [2]
N.O=C(O)C(F)(OC(F)(F)C(F)(OC(F)(F)C(F)(F)F)C(F)(F)F)C(F)(F)F (stereo not shown) [CF3CF2OCF(CF3)CF2OCF(CF3)COONH4]	4.03	high	
N.O=C(O)C(F)(OC(F)(F)C(C(F)(F)F)C(F)(F)C(F)(F)C(F)(F)F)C(F)(F)F (stereo not shown) [CF3CF2CF2C(CF3)CF2OCF(CF3)COONH4]			higher bioaccumulation potential than APFO
N.O=C(O)C(F)(F)OC(F)(F)C(F)(F)OC(F)(F)C(F)(F)F [CF3CF2OCF2CF2OCF2COONH4]	3.13	low	
N.O=C(O)C(F)(F)C(F)(F)C(F)(F)C(F)(F)C(F)(F)C(F)(F)C(F)(F)F [CF3(CF2)6COONH4, ammonium perfluorooctanoate]	3.67		high
